Results on two compounds are retold here after patent US9255272B2, “Use of inhibitors of leukotriene B4 receptor BLT2 for treating asthma” (Korea University Research & Business Foundation, priority 2007, dated 2016).

Data set [1] relates to acute lung injury induced by endotoxin. The note with it: pigs, cited from earlier work.
The test system of the next data set is ROS. The experiment in a line: ROS levels in BAL fluid cells (DCF fluorescence, FACS). The format is in vivo, mouse. To be noted: 1.6 mg/kg i.v. 24 hr and 1 hr before 10% OVA; BAL fluid 48 h after challenge. The protocol:
Female BALB/c mice and C57BL/6 mice (7 weeks old; 18-20 g) were obtained from Orientbion Inc. (Seoungnam, Korea). Sensitization and challenge were carried out as described previously with some modification (28). Briefly, female C57BL/6 mice (7 weeks old; 18-20 g) were immunized by intraperitoneal (i.p.) injection of 200 μg ovalbumin (OVA) emulsified in 2.5 mg of adjuvant aluminum hydroperoxide gel (alum) (Pierce, Rockford, Ill.). A second i.p. injection of 20 μg OVA adsorbed onto alum (2.5 mg) was administered 10 days later. After an additional 10 days, mice were exposed to an aerosol of 1% OVA in saline for 30 min daily on 3 consecutive days. On day 25, mice were finally challenged by provocation with 10% OVA aerosol. For inhibition experiments, sense or antisense BLT2 (1.6 mg/kg) was injected intravenously 24 h and then 1 h before the 10% OVA challenge. The mice were then killed on day 27 to assess asthmatic phenotypes. Antisense BLT2 oligonucleotide (5′-[…]-3′ (SEQ ID NO: 15)), sense BLT2 oligonucleotide (5′-[…]-3′ (SEQ ID NO: 16)).
ROS levels in BAL fluids were measured as a function of DCF fluorescence as described previously (30). […] DCF fluorescence was excited at 488 nm and the evoked emission was filtered with a 515-nm long-pass filter. […]

The next data set concerns LTB4. The experiment in a line: LTB4 level in BAL fluid (EIA). The note with it: antisense BLT2 1.6 mg/kg i.v. 24 h and 1 h before 10% OVA; 48 h. The format is in vivo, mouse. The protocol:
Female BALB/c mice and C57BL/6 mice (7 weeks old; 18-20 g) were obtained from Orientbion Inc. (Seoungnam, Korea). Sensitization and challenge were carried out as described previously with some modification (28). Briefly, female C57BL/6 mice (7 weeks old; 18-20 g) were immunized by intraperitoneal (i.p.) injection of 200 μg ovalbumin (OVA) emulsified in 2.5 mg of adjuvant aluminum hydroperoxide gel (alum) (Pierce, Rockford, Ill.). A second i.p. injection of 20 μg OVA adsorbed onto alum (2.5 mg) was administered 10 days later. After an additional 10 days, mice were exposed to an aerosol of 1% OVA in saline for 30 min daily on 3 consecutive days. On day 25, mice were finally challenged by provocation with 10% OVA aerosol. For inhibition experiments, sense or antisense BLT2 (1.6 mg/kg) was injected intravenously 24 h and then 1 h before the 10% OVA challenge. The mice were then killed on day 27 to assess asthmatic phenotypes. […]
Levels of LTB4 were quantified with the leukotriene B4 enzyme immunoassay (EIA) Biotrak™ system (Amersham Biosciences, UK). […] Substrate (tetramethylbenzidine) was then added, and the reaction was stopped by adding an acid solution and the color read at 450 nm in a spectrophotometer. […] Statistical significance of differences between groups was assessed by analysis of variance, and P<0.05 was considered significant.

Turning to `CCc1cc(C(C)=O)c(O)cc1OCCCCCC(C)(C)c1nnn[nH]1` [LY255283, 1-[5-ethyl-2-hydroxy-4-[[6-methyl-6-(1H-tetrazol-5-yl)heptyl]oxy]phenyl]-ethanone, reference compound], in data set [1] (endotoxin), the activation of neutrophils entry is “limits activation of neutrophils”. Moreover, the “acute lung injury induced by endotoxin” value in data set [1] is “prevents acute lung injury”.

Regarding “antisense BLT2: Antisense BLT2 oligonucleotide 5′-GCTCAGTAGTGTCTCATTCC-3′ (SEQ ID NO: 15) (listed as DNA, chemistry not fully specified)”, the “reduction of ROS levels in BAL fluid” value with ROS was −70%. The “suppression of the level of LTB4 in BAL fluid” value in the data set on LTB4 is recorded as −72%.
